{
  "source": "paper PMC5544777",
  "about": "“Kinetics and thermodynamics of the protein-ligand interactions in the riboflavin kinase activity of the FAD synthetase from Corynebacterium ammoniagenes” (Scientific Reports, 2017)",
  "key": {"[1]": {"biological_target": "T1, RFK module of CaFADS (Corynebacterium ammoniagenes, UniProt Q59263, L183M)", "T1 construct": "a truncated CaFADS variant consisting in the isolated C-terminal RFK module; made in house; host or cells: E. coli BL21(DE3)", "T1 sequence (Q59263 183-338 L183M)": "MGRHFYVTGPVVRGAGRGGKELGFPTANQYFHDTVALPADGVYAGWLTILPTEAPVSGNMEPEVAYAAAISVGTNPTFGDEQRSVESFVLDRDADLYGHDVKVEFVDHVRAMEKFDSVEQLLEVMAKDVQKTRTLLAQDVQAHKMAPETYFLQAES", "test": "Isothermal titration calorimetry of binary and ternary interactions", "type": "binding", "settings": "for Kd: read-out: Kd", "experimental": "Isothermal titration calorimetry (ITC) experiments were performed to elucidate the order in which ligands bind to the enzyme, as well as the binding inhibition effects from the thermodynamic point of view. Experiments were carried out in an AutoITC200 (MicroCal) that was thermostated at 25 °C. […] Titrations with FLV ligands of mixtures that contained the enzyme prebound with the ANP ligand were also carried out, as well as ANP titrations of mixtures of the enzyme saturated with FLV ligands. In these experiments, the titration was performed by stepwise injecting the titrating ligand. Up to 19 injections of 2 μL each were added to the calorimetric sample cell and mixed at a stirring speed of 1000 r.p.m. Ligands and protein were dissolved in 20 mM PIPES, pH 7.0, either in the presence or absence of 0.8 mM MgCl2, and degassed prior to titration. The association constant (K a), the enthalpy change (ΔH) and the binding stoichiometry (N) were obtained through a nonlinear least squares regression of the data using a homemade model for one or two independent binding sites, which was implemented in Origin 7.0 (OriginLab) as previously described, [20]. The entropic contribution (-TΔS), the Gibbs free energy (ΔG) and the dissociation constant (K d) were obtained through essential thermodynamic equations.\nExperiments were performed in triplicate."}, "[2]": {"biological_target": "T1, RFK module of CaFADS", "test": "Steady-state RFK activity (HPLC quantification of flavins)", "type": "biochemical", "settings": "for type of inhibition of the RFK activity: Dixon, Cornish-Bowden and Lineweaver-Burk plots", "experimental": "In all cases, reactions were initiated by addition of the enzyme to a final concentration of ≈40 nM, which was followed by 1 min of incubation, and the reactions were stopped by boiling the samples at 100 °C for 5 min as previously described, [20]. The flavin composition of the supernatant was analyzed using an Alliance HPLC system (Waters) equipped with a 2707 autosampler and an HSST3 column (4.6 × 50 mm, […]; Waters) preceded by a precolumn (4.6 × 20 mm, […]; Waters) as previously described, [20]. […] All the experiments were carried out in triplicate.\nAdditionally, Dixon plots (1/(v 0/[e]) vs [I]) and Cornish-Bowden representations ([S]/(v 0/[e]) vs [I]) were used to reveal the type of inhibition, [43]."}, "[3]": {"test": "Flavin photobleaching decay in the stopped-flow equipment", "type": "physicochemical", "source_text": "Due to the deterioration that flavins undergo when they are exposed to light, we also evaluated the FLV photobleaching decay during measurements."}, "[4]": {"settings": "initial mixture RFK:FMN, 0.0 mM MgCl2"}, "[5]": {"settings": "initial mixture RFK:FMN, 0.8 mM MgCl2"}, "[6]": {"settings": "initial mixture RFK:RF, 0.0 mM MgCl2"}, "[7]": {"settings": "initial mixture RFK:RF, 0.8 mM MgCl2"}, "[8]": {"settings": "initial mixture RFK, 0.0 mM MgCl2"}, "[9]": {"settings": "initial mixture RFK, 0.8 mM MgCl2"}, "[10]": {"settings": "initial mixture RFK:ADP, 0.0 mM MgCl2"}, "[11]": {"settings": "initial mixture RFK:ADP, 0.8 mM MgCl2"}, "[12]": {"settings": "initial mixture RFK:ATP, 0.0 mM MgCl2"}, "[13]": {"settings": "initial mixture RFK:ATP, 0.8 mM MgCl2"}},
  "note": "Like-named read-outs stand apart in the source and are kept apart here.",
  "data": [
    {"smiles": "Nc1ncnc2c1ncn2[C@@H]1O[C@H](COP(=O)(O)OP(=O)(O)O)[C@@H](O)[C@H]1O", "note": "[ADP]", "values": [
      {"measurement": "-TΔS", "setting": "[1]; [4]", "value": 9.3, "unit": "kcal/mol"},
      {"measurement": "ΔG", "setting": "[1]; [4]", "value": -6.6, "unit": "kcal/mol"},
      {"measurement": "ΔH", "setting": "[1]; [4]", "value": -15.9, "unit": "kcal/mol"},
      {"measurement": "Kd", "setting": "[1]; [4]", "value": 14.8, "unit": "µM"},
      {"measurement": "-TΔS", "setting": "[1]; [5]", "value": 1.8, "unit": "kcal/mol"},
      {"measurement": "ΔG", "setting": "[1]; [5]", "value": -8.5, "unit": "kcal/mol"},
      {"measurement": "ΔH", "setting": "[1]; [5]", "value": -10.3, "unit": "kcal/mol"},
      {"measurement": "Kd", "setting": "[1]; [5]", "value": 0.6, "unit": "µM"},
      {"measurement": "-TΔS", "setting": "[1]; [6]", "value": 25.4, "unit": "kcal/mol"},
      {"measurement": "ΔG", "setting": "[1]; [6]", "value": -6.5, "unit": "kcal/mol"},
      {"measurement": "ΔH", "setting": "[1]; [6]", "value": -31.8, "unit": "kcal/mol"},
      {"measurement": "Kd", "setting": "[1]; [6]", "value": 17.1, "unit": "µM"},
      {"measurement": "-TΔS", "setting": "[1]; [7]", "value": 5.2, "unit": "kcal/mol"},
      {"measurement": "ΔG", "setting": "[1]; [7]", "value": -8.2, "unit": "kcal/mol"},
      {"measurement": "ΔH", "setting": "[1]; [7]", "value": -13.4, "unit": "kcal/mol"},
      {"measurement": "Kd", "setting": "[1]; [7]", "value": 1, "unit": "µM"},
      {"measurement": "-TΔS", "setting": "[1]; [8]", "value": 0.6, "unit": "kcal/mol"},
      {"measurement": "ΔG", "setting": "[1]; [8]", "value": -5.8, "unit": "kcal/mol"},
      {"measurement": "ΔH", "setting": "[1]; [8]", "value": -6.4, "unit": "kcal/mol"},
      {"measurement": "Kd", "setting": "[1]; initial mixture RFK, 0.0 mM MgCl2, 20 mM PIPES, pH 7.0, 25 °C", "value": 51.4, "unit": "µM"},
      {"measurement": "-TΔS", "setting": "[1]; [9]", "value": 3.5, "unit": "kcal/mol"},
      {"measurement": "ΔG", "setting": "[1]; [9]", "value": -6.4, "unit": "kcal/mol"},
      {"measurement": "ΔH", "setting": "[1]; [9]", "value": -9.8, "unit": "kcal/mol"},
      {"measurement": "Kd", "setting": "[1]; initial mixture RFK, 0.8 mM MgCl2, 20 mM PIPES, pH 7.0, 25 °C", "value": 22.1, "unit": "µM"},
      {"measurement": "type of inhibition of the RFK activity", "setting": "[2]", "value": "competitive inhibitor"},
      {"measurement": "Ki", "setting": "[2]; global fit of Lineweaver-Burk equation, competitive inhibition, ~5 µM RF, read-out: KiADP", "value": "17 ± 3.3", "unit": "µM"},
      {"measurement": "K m/K i ratio", "setting": "[2]; product inhibitor potency, KmRF/KiFMN and KmATP/KiADP", "value": "≈ 2.4"}
    ]},
    {"smiles": "Cc1cc2nc3c(=O)[nH]c(=O)nc-3n(C[C@H](O)[C@H](O)[C@H](O)COP(=O)(O)O)c2cc1C", "note": "[FMN, flavin mononucleotide]", "values": [
      {"measurement": "interaction with the RFK module on titration with the individual ligand", "setting": "[1]; ITC thermograms, free RFK module, titrated at different temperatures", "value": "does not interact or interacts with undetectable ΔCp"},
      {"measurement": "-TΔS", "setting": "[1]; [10]", "value": 10.6, "unit": "kcal/mol"},
      {"measurement": "ΔG", "setting": "[1]; [10]", "value": -7.1, "unit": "kcal/mol"},
      {"measurement": "ΔH", "setting": "[1]; [10]", "value": -17.7, "unit": "kcal/mol"},
      {"measurement": "-TΔS", "setting": "[1]; [11]", "value": -1.9, "unit": "kcal/mol"},
      {"measurement": "ΔG", "setting": "[1]; [11]", "value": -8.4, "unit": "kcal/mol"},
      {"measurement": "ΔH", "setting": "[1]; [11]", "value": -6.4, "unit": "kcal/mol"},
      {"measurement": "-TΔS", "setting": "[1]; [12]", "value": 15.4, "unit": "kcal/mol"},
      {"measurement": "ΔG", "setting": "[1]; [12]", "value": -6.3, "unit": "kcal/mol"},
      {"measurement": "ΔH", "setting": "[1]; [12]", "value": -21.7, "unit": "kcal/mol"},
      {"measurement": "-TΔS", "setting": "[1]; [13]", "value": -0.2, "unit": "kcal/mol"},
      {"measurement": "ΔG", "setting": "[1]; [13]", "value": -7.1, "unit": "kcal/mol"},
      {"measurement": "ΔH", "setting": "[1]; [13]", "value": -6.9, "unit": "kcal/mol"},
      {"measurement": "type of inhibition of the RFK activity", "setting": "[2]", "value": "uncompetitive inhibitor"},
      {"measurement": "photobleaching rate", "setting": "[3]; flavin fluorescence decay during stopped-flow measurements, 25 °C, 0.8 mM MgCl2, pH 7.0", "value": "0.0041 ± 0.00018", "unit": "min⁻¹"},
      {"measurement": "rate of slow linear fluorescence decay (photobleaching range)", "setting": "[3]; flavin mixed with the RFK module without ANP, stopped-flow", "value": "0.0041 ± 0.00024", "unit": "min⁻¹"}
    ]}
  ]
}
